The values below come from patent publication US20120040998A1, “2-ALKYL PIPERIDINE MGLUR5 RECEPTOR MODULATORS” (priority 2009, published 2012).

Where two headings read alike, the source gives them in different places.

The assay addresses T1, human mGluR5A (Homo sapiens, UniProt P41594).
T1 construct: expressed in transfected cells
Put plainly: FLIPR Ca2+ mobilization assay, potentiation in the presence of 300 nM glutamate (EC20). Format: cell-based. The text has this: The utility of the compounds in accordance with the present invention as positive allosteric modulators of metabotropic glutamate receptor activity, in particular mGluR5 activity, may be readily determined without undue experimentation by methodology well known in the art, including O'Brien et al., Molecular Pharmacology 2003, 64(3) 731-740. In particular, the compounds of the following examples had activity in reference assays by enhancing mGluR5 activity. […] Changes in intracellular Ca^2+ were measured with Fluo-4AM ester (Invitrogen/Molecular Probes), which was detected on a Fluorometric Imaging Plate Reader (FLIPR, Molecular Devices, Sunnyvale, Calif.). In a typical experiment the mGluR5 positive allosteric modulatory activity of the compounds of the present invention was determined in accordance with the following experimental method.
Cell Culture: Chinese Hamster Ovary (CHO) cells expressing human mGluR5A were maintained in growth medium containing DMEM, 10% dialyzed Fetal Bovine Serum, 50 units/mL Penicillin, 50 ug/mL Streptomycin, 2 mM L-glutamine, 1×MEM non-essential amino acids, 1 mM sodium pyruvate, 25 mM HEPES, 55 uM 2-mercaptoethanol, 5 ug/mL Puromycin, and 250 ug/mL Zeocin at 37° C. and 5% CO2. The day before the experiment, the cells were washed and seeded in “plating media” containing only DMEM, 10% dialyzed Fetal Bovine Serum, 50 units/mL Penicillin, and 50 ug/mL Streptomycin at a density of 50,000 cells/well (100 uL/well) in black 384-well clear-bottom PDL-coated plates. The cells were grown overnight at 37° C. and 6% CO2. This overnight glutamine/glutamate starvation allowed for consistent expression of the mGluR5A receptor, and the ability to add a known amount of agonist (glutamate in most cases) on the day of the experiment.
Fluorescent Ca^2+ mobilization (FLIPR) assay: The day of the experiment, the cells were washed with 37° C. Assay Buffer (Hanks Balanced Salt Solution with CaCl2 and MgCl2, 20 mM HEPES, 2.5 mM Probenecid, 0.1% BSA) with an automated plate washer (3×100 uL, aspiration 3 mm from bottom leaving ˜30 uL of buffer in each well). After washing, 30 uL of dye loading buffer (4 uM Fluo-4AM, 0.04% Pluronic acid, and 1% dialyzed FBS in assay buffer) were added to each well of the plates for 2 uM Fluo-4AM final concentration. The plates were incubated at 37° C. and 6% CO2 for 1 hour to allow for dye loading. After dye loading, the cells were washed again as above, and placed on the FLIPR. Assays were conducted with two possible scenarios: 1) To determine the potencies of the compounds, as either agonists of mGluR5 or potentiators of mGluR5 in the presence of a sub-threshold amount of glutamate, 10-point titrations of the compounds (1:3 dilution between each point, 30-0.0015 uM final concentrations) were added to the cells, followed by the addition of the EC20 of glutamate (300 nM) to the cells. 2) To determine the cooperativity of the compounds with the natural agonist (glutamate), single concentrations of the compounds were added to the cells, followed by the addition of a 10-point titration of glutamate (1:3 dilution between each point, 1000-0.05 uM final concentrations). […] For both scenarios above, operation of the FLIPR was the same. Baseline fluorescence was monitored for 10 seconds, followed by the addition of compounds diluted in Assay Buffer (1% DMSO concentration after this addition, 0.66% final DMSO concentration after agonist addition). After monitoring fluorescence for 5 minutes, during which time any intrinsic agonist activity of the compounds would have been detected, the agonist (glutamate) also diluted in assay buffer was then added to the cells. The response was then monitored for an additional 3 minutes. In scenario #1, the peak during the final 3 minutes was used for potentiator data, and the peak during the 5 minutes post compound addition was used for compound agonist data. […]
Background: Calcium flux is commonly read through the fluorescence of an indicator in the cells.

The mark [1] stands for this setting: potentiation in presence of 300 nM glutamate, read-out: EC50 in potentiating/enhancing the mGluR5 receptor in the FLIPR assay.
Setting [2] is: potentiation, CHO cells expressing human mGluR5A, in presence of 300 nM glutamate, inflection points, read-out: FLIPR EC50.

T1 sequence (P41594 21-1180 isoform P41594-2 limits assumed): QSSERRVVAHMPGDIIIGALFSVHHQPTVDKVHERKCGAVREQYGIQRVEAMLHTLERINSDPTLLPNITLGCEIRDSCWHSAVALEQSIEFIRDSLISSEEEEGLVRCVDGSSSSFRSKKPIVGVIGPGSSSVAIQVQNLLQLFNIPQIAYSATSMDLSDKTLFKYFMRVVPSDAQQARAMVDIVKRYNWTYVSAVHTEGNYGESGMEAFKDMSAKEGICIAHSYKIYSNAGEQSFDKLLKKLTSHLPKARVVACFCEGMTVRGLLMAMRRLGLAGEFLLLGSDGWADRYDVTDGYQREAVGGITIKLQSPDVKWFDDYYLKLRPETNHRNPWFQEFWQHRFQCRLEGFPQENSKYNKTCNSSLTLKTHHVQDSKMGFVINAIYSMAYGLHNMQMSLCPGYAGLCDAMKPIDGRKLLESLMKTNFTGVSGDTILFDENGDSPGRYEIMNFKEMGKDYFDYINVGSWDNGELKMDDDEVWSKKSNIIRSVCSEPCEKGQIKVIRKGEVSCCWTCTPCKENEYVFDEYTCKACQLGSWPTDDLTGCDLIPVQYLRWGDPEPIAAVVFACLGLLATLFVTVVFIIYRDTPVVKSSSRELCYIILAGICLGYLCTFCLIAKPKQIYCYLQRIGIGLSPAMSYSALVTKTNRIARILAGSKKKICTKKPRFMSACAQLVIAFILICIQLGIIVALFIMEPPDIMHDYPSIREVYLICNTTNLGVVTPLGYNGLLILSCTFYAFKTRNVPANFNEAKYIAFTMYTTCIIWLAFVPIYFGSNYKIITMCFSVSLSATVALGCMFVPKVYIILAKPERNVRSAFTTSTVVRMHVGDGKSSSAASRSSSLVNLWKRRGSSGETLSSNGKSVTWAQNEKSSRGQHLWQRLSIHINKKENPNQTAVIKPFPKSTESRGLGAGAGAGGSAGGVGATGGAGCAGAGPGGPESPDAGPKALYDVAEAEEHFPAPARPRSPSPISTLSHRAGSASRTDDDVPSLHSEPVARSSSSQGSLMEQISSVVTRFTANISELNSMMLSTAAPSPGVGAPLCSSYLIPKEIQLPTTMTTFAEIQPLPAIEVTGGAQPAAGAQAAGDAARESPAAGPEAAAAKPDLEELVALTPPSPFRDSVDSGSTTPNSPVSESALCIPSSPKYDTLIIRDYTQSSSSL

As for `C[C@@H]1CC[C@H](c2noc(-c3ccc(F)cc3)n2)CN1C(=O)c1ccc(F)cc1` [Example 1-16, (2R,5S)-1-(4-fluorobenzoyl)-5-[5-(4-fluorophenyl)-1,2,4-oxadiazol-3-yl]-2-methylpiperidine], the EC50 by setting is: under setting [1], less than 1000 nM; under setting [2], 124 nM.

In the case of `C[C@H]1CC[C@@H](c2noc(-c3cc(Cl)c[nH]3)n2)CN1C(=O)c1ccc(F)cc1` [Example 2-3, (2S,5R)-5-[5-(4-chloro-1H-pyrrol-2-yl)-1,2,4-oxadiazol-3-yl]-1-(4-fluorobenzoyl)-2-methylpiperidine], the EC50 under setting [1] is less than 1000 nM and the EC50 under setting [2] came out at 486 nM.

Regarding `C[C@@H]1CC[C@H](c2noc(-c3cc(Cl)c[nH]3)n2)CN1C(=O)c1ccc(F)cc1` [Example 2-4, (2R,5S)-5-[5-(4-chloro-1H-pyrrol-2-yl)-1,2,4-oxadiazol-3-yl]-1-(4-fluorobenzoyl)-2-methylpiperidine], the EC50 under setting [1] is less than 1000 nM and the EC50 under setting [2] turned out to be 25 nM.

As to `C[C@@H]1CC[C@H](c2noc(-c3ccc(F)cn3)n2)CN1C(=O)c1ccc(F)cc1` [Example 4-4, 5-Fluoro-2-{3-[(3S,6R)-1-(4-fluorobenzoyl)-6-methylpiperidin-3-yl]-1,2,4-oxadiazol-5-yl}pyridine], the EC50 was less than 1000 nM under setting [1] and 210 nM under setting [2].

As to `C[C@@H]1CC[C@H](c2nc(-c3cc(Cl)c[nH]3)no2)CN1C(=O)c1ccc(F)cc1` [Example 5-5, (2R,5S)-5-[3-(4-Chloro-1H-pyrrol-2-yl)-1,2,4-oxadiazol-5-yl]-1-(4-fluorobenzoyl)-2-methylpiperidine], the EC50 was less than 1000 nM under setting [1] and 19 nM under setting [2].

Regarding `C[C@@H]1CC[C@H](c2noc(-c3cc(Cl)c[nH]3)n2)CN1C(=O)c1ccc(F)nc1` [Example 9-9, 5-({(2R,5S)-5-[5-(4-chloro-1H-pyrrol-2-yl)-1,2,4-oxadiazol-3-yl]-2-methylpiperidin-1-yl}carbonyl)-2-fluoropyridine], the EC50 was less than 1000 nM under setting [1] and 146 nM under setting [2].

As for `C[C@@H]1CC[C@H](c2nc(-c3cc(Cl)c[nH]3)no2)CN1C(=O)c1ccc(F)nc1` [Example 9-18, 5-({(2R,5S)-5-[3-(4-chloro-1H-pyrrol-2-yl)-1,2,4-oxadiazol-5-yl]-2-methylpiperidin-1-yl}carbonyl)-2-fluoropyridine], the EC50 under setting [1] was less than 1000 nM and the EC50 under setting [2] amounted to 91 nM.

As to `COc1cc(C(=O)N2C[C@@H](c3nc(-c4cc(Cl)c[nH]4)no3)CC[C@H]2C)ccn1` [Example 9-22, 4-({(2R,5S)-5-[3-(4-chloro-1H-pyrrol-2-yl)-1,2,4-oxadiazol-5-yl]-2-methylpiperidin-1-yl}carbonyl)-2-methoxypyridine], the EC50 is less than 1000 nM under setting [1] and 55 nM under setting [2].
